Usually inhibition stands for how much of the control response was suppressed. Lower therefore signals a weak effect.

Molecules are shown by their SMILES.

The target of the first test is T1, hDGAT1 (Homo sapiens, UniProt O75907).
T1 construct: host or cells: Sf9 insect cells (baculovirus); microsomal preparation
T1 sequence (O75907 1-488): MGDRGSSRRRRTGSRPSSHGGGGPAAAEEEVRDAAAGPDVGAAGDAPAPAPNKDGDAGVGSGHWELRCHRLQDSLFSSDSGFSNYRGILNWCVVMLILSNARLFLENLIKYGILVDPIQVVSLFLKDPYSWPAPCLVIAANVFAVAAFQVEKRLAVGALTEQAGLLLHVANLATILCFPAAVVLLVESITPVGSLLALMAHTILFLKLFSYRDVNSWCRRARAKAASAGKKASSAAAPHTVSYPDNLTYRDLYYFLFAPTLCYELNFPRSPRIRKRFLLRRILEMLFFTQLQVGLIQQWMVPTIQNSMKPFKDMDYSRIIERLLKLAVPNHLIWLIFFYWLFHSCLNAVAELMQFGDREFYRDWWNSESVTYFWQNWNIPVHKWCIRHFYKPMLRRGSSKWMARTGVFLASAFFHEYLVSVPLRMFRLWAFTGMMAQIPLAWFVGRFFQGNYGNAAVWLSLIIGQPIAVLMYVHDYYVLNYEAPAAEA
In words: In-vitro DGAT1 assay (hDGAT1 microsomes from Sf9 cells, 14C oleoyl CoA, triglyceride formation). In kind it is biochemical. As to conditions: At 1 μM. The method, boiled down:
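Human DGAT1 in baculovirus-infected Sf9 microsomes (2.5–10 μg), [14C]oleoyl-CoA with 409.5, 1228.5 or 1638 μM 1,2-dioleoyl-sn-glycerol, Tris-HCl pH 7.4 buffer with BSA. Compounds screened at 10, 5 and 1 μM in duplicate. Reaction 10 min at 37 °C; heptane-extracted [14C]triglyceride counted by scintillation.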
As to `COC(=O)[C@H](C(C)C)N(C)C(=O)c1cc(-c2ccc(NC(=O)Nc3ccc(F)cc3)cc2)no1` [Example 307, (S)-methyl 2-(3-(4-(3-(4-fluorophenyl)ureido)phenyl)-N-methylisoxazole-5-carboxamido)-3-methylbutanoate], the inhibition at 1 µM was in the range of 50 to 75%.
Same read-out and setting: under `CC(C)C(NC(=O)c1cc(-c2ccc(NC(=O)c3ccc(C(C)(C)C)cc3)cc2)no1)C(=O)O` (stereo not shown) [Example 297, 2-(3-(4-(4-tert-butylbenzamido)phenyl)isoxazole-5-carboxamido)-3-methylbutanoic acid] stands 75 to 100%; under `Cc1ccc(NC(=O)Nc2ccc(-c3cc(C(=O)N[C@H](C(=O)O)C(C)C)on3)cc2)c(C)c1` [Example 171, (S)-2-(3-(4-(3-(2,4-dimethylphenyl)ureido)phenyl)isoxazole-5-carboxamido)-3-methylbutanoic acid], 75 to 100%.
In turn, `CC(C)[C@H](NC(=O)c1cc(-c2ccc(NC(=O)Nc3c(Cl)cccc3C(F)(F)F)cc2)no1)C(=O)O` [Example 234, (S)-2-(3-(4-(3-(2-Chloro-6-(trifluoromethyl)phenyl)ureido)phenyl)isoxazole-5-carboxamido)-3-methylbutanoic acid] gave an inhibition at 1 µM of 0 to 50%.
For `CC(C)C(NC(=O)c1cc(-c2ccc(NC(=O)Nc3ccc(OC(F)(F)F)cc3Cl)cc2)no1)C(=O)O` (stereo not shown) [Example 287, 2-(3-(4-(3-(2-chloro-4-(trifluoromethoxy)phenyl)ureido)phenyl)isoxazole-5-carboxamido)-3-methylbutanoic acid], the inhibition at 1 µM is 75 to 100%.
`COC(=O)c1ccc(NC(=O)Nc2ccc(-c3cc(C(=O)NC(C(=O)OC)C(C)C)on3)cc2)cc1` (stereo not shown) [Example 283, Methyl 4-(3-(4-(5-(1-methoxy-3-methyl-1-oxobutan-2-ylcarbamoyl)isoxazol-3-yl)phenyl)ureido)benzoate] displayed an inhibition at 1 µM of 0 to 50%.
On the same count and under the same terms, under `CC(C)C(NC(=O)c1cc(-c2ccc(NC(=O)[C@H](O)c3ccccc3)cc2)no1)C(=O)O` (stereo partly drawn) [Example 341, 2-(3-(4-((R)-2-hydroxy-2-phenylacetamido)phenyl)isoxazole-5-carboxamido)-3-methylbutanoic acid] stands 0 to 50%.
Still for that read-out and setting: for `CC(C)[C@H](NC(=O)c1csc(-c2ccc(NC(=O)Nc3ccc(F)c(F)c3)cc2)n1)C(=O)O` [Example 371, (S)-2-(2-(4-(3-(3,4-Difluorophenyl)ureido)phenyl)thiazole-4-carboxamido)-3-methylbutanoic acid] the value was 0 to 50%; for `COc1ccccc1NC(=O)Nc1ccc(-c2cc(C(=O)N[C@H](C(=O)O)C(C)C)on2)cc1` [Example 185, (S)-2-(3-(4-(3-(2-methoxyphenyl)ureido)phenyl)isoxazole-5-carboxamido)-3-methylbutanoic acid], 75 to 100%.
`CC(C)[C@@H](C(=O)O)N(C)C(=O)c1cc(-c2ccc(NC(=O)NC3CCCCC3)cc2)no1` [Example 312, (S)-2-(3-(4-(3-cyclohexylureido)phenyl)-N-methylisoxazole-5-carboxamido)-3-methylbutanoic acid] had an inhibition at 1 µM of 0 to 50%.

Staying with this test, now noted: At 5 μM.
As to `C=C(NC(=O)c1cc(-c2ccc(NC(=O)Nc3ccccc3F)cc2)no1)C(=O)OC` [Example 301, Methyl 2-(3-(4-(3-(2-fluorophenyl)ureido)phenyl)isoxazole-5-carboxamido)acrylate], the inhibition at 5 µM was in the range of 50 to 75%.
For the molecule `CC(C)[C@H](NC(=O)c1cc(-c2ccc(NC(=O)Nc3ccc(F)cc3F)cc2F)no1)C(=O)O` [Example 142, (S)-2-(3-(4-(3-(2,4-difluorophenyl)ureido)-2-fluorophenyl)isoxazole-5-carboxamido)-3-methylbutanoic acid], the inhibition at 5 µM lay within 75 to 100%.
Take `COC(=O)[C@@H](NC(=O)c1nc(-c2ccc(NC(=S)Nc3ccc(F)cc3)cc2)no1)C(C)C` [Example 354, (S)-Methyl 2-(3-(4-(3-(4-fluorophenyl)thioureido)phenyl)-1,2,4-oxadiazole-5-carboxamido)-3-methylbutanoate]: the inhibition at 5 µM lay within 0 to 50%.
On the same count and under the same terms, for `COC(=O)C(NC(=O)c1cc(-c2ccc(NC(=O)Nc3ccc(C(F)(F)F)cc3)cc2)no1)C(C)C` (stereo not shown) [Example 275, Methyl 3-methyl-2-(3-(4-(3-(4-(trifluoromethyl)phenyl)ureido)phenyl)isoxazole-5-carboxamido)butanoate] the value was 0 to 50%.

Staying with this test, now noted: At 10 μM.
`COC(=O)[C@@H](NC(=NO)c1cc(-c2ccc(Nc3nc4ccc(F)cc4s3)cc2)no1)c1ccccc1` [Example 56, (S)-({3-[4-(6-Fluoro-benzothiazol-2-ylamino)-phenyl]-N-hydroxy-isoxazole-5-carboximidoyl}-amino)-phenyl-acetic acid methyl ester] displayed an inhibition at 10 µM of 0 to 50%.
Molecule `COC(=O)CNC(=S)c1cc(-c2ccc(Nc3nc4ccc(F)cc4s3)cc2)no1` [Example 60, ({3-[4-(6-fluoro-benzothiazol-2-ylamino)-phenyl]-isoxazole-5-carbothioyl}-amino)-acetic acid methyl ester] displayed an inhibition at 10 µM of 0 to 50%.
As for `Cc1cc(NC(=O)Nc2ccc(F)cc2F)ccc1-c1cc(C(=O)NC(C(=O)O)C(C)C)on1` (stereo not shown) [Example 138, 2-(3-(4-(3-(2,4-difluorophenyl)ureido)-2-methylphenyl)isoxazole-5-carboxamido)-3-methylbutanoic acid], the inhibition at 10 µM fell in the range of 75 to 100%.
`COC(=O)C(CC(C)C)NC(=O)c1cc(-c2cc(NC(=O)Nc3ccc(F)cc3)ccc2C)no1` (stereo not shown) [Example 131, Methyl 2-(3-(5-(3-(4-fluorophenyl)ureido)-2-methylphenyl)isoxazole-5-carboxamido)-4-methylpentanoate] registered an inhibition at 10 µM of 0 to 50%.
The molecule `COC(=O)[C@@H](NC(=NO)c1cc(-c2cccc(Nc3nc4ccc(F)cc4s3)c2)no1)C(C)C` [Example 26, (S)-2-({3-[3-(6-Fluoro-benzothiazol-2-ylamino)-phenyl]-N-hydroxy-isoxazole-5-carboximidoyl}-amino)-3-methyl-butyric acid methyl ester] had an inhibition at 10 µM of 0 to 50%.
Regarding `COC[C@H](NC(=O)c1c(-c2ccc(Nc3nc4ccc(F)cc4s3)cc2)noc1-c1ccccc1)C(=O)OC` [Example 70, (S)-2-({3-[4-(6-Fluoro-benzothiazol-2-ylamino)-phenyl]-5-phenyl-isoxazole-4-carbonyl}-amino)-3-methoxy-propionic acid methyl ester], the inhibition at 10 µM is 0 to 50%.
`COC(=O)C(CC(C)C)NC(=O)c1cc(-c2ccc(NC(=O)Nc3ccc(F)cc3F)cc2C)no1` (stereo not shown) [Example 139, Methyl 2-(3-(4-(3-(2,4-difluorophenyl)ureido)-2-methylphenyl)isoxazole-5-carboxamido)-4-methylpentanoate]: the inhibition at 10 µM was in the range of 0 to 50%.
For the molecule `COC[C@H](NC(=NO)c1cc(-c2ccc(Nc3nc4ccc(F)cc4s3)cc2)no1)C(=O)O` [Example 17, (S)-2-({3-[4-(6-Fluoro-benzothiazol-2-ylamino)-phenyl]-N-hydroxy-isoxazole-5-carboximidoyl}-amino)-3-methoxy-propionic acid], the inhibition at 10 µM lay in the range of 0 to 50%.
On the same count and under the same terms, for `COC(=O)[C@H](CC(C)C)NC(=O)c1cc(-c2ccc(NC(=O)Nc3ccc(F)cc3)cc2)no1` [Example 86, (S)-2-[(3-{4-[3-(4-Fluoro-phenyl)-ureido]-phenyl}-isoxazole-5-carbonyl)-amino]-4-methyl-pentanoic acid methyl ester] the value was 0 to 50%; for `CC(C)[C@H](NC(=NO)c1cc(-c2cccc(Nc3nc4ccc(F)cc4s3)c2)no1)C(=O)O` [Example 27, (S)-2-({3-[3-(6-Fluoro-benzothiazol-2-ylamino)-phenyl]-N-hydroxy-isoxazole-5-carboximidoyl}-amino)-3-methyl-butyric acid], 0 to 50%; for `O=C(O)CNC(=S)c1cc(-c2ccc(Nc3nc4ccc(F)cc4s3)cc2)no1` [Example 61, ({3-[4-(6-fluoro-benzothiazol-2-ylamino)-phenyl]-isoxazole-5-carbothioyl}-amino)-acetic acid], 0 to 50%.
Still for that read-out and setting: for `O=C(N[C@H](C(=O)O)c1ccccc1)c1cc(-c2ccc(Nc3nc4ccc(F)cc4s3)cc2)no1` [Example 53, (S)-({3-[4-(6-Fluoro-benzothiazol-2-ylamino)-phenyl]-isoxazole-5-carbonyl}-amino)-phenyl-acetic acid] the value was 75 to 100%.
Same read-out and setting: under `COC(=O)[C@@H](NC(=O)c1onc(-c2ccc(NC(=O)Nc3ccccc3)cc2)c1-c1ccccc1)C(C)C` [Example 88, (S)-3-Methyl-2-({4-phenyl-3-[4-(3-phenyl-ureido)-phenyl]-isoxazole-5-carbonyl}-amino)-butyric acid methyl ester] stands 0 to 50%.
In the case of `O=C(O)[C@@H]1CCCN1C(=S)c1cc(-c2cccc(Nc3nc4ccc(F)cc4s3)c2)no1` [Example 37, (S)-1-{3-[3-(6-Fluoro-benzothiazol-2-ylamino)-phenyl]-isoxazole-5-carbothioyl}-pyrrolidine-2-carboxylic acid], the inhibition at 10 µM lay in the range of 0 to 50%.

Source of the values: patent US8835428B2, “Diacylglycerol acyltransferase inhibitors” (Piramal Enterprises Limited, priority 2008, dated 2014).
